This is an account of results in patent US20060234960A1, “Methods and compositions for increasing the safety and efficacy of albumin-binding drugs” (priority 2005, published 2006).

For data set [1] the following is noted: murine vs human blood; cited from earlier work.
For data set [2], the system named is brain cancer. Conditions: cited from earlier work.
The conditions of data set [3]: whole human blood; cited from earlier work.
Data set [4] has as its target T1, human serum albumin (Homo sapiens, UniProt P02768). The text has this:
Salus™ Drug Combinatorial Agents were identified using the CADEX knowledge base.

Data set [5] has as its system human MRC-5 lung fibroblast cell line. Kind of data set: IC50 in human MRC-5 lung fibroblast cell line (in vitro toxicity). In kind it is cell-based. Conditions: best case scenario. The text has this:
Therapeutic index is defined as the ratio of the median lethal dose (LD50) to the median effective dose (ED50). […] While animal tests are at best only about 65 percent predictive of human acute toxicity, a combination of four cell tests can determine of a substance is dangerous to humans with better than 80 percent precision.
(§1) We have decided to use the human MRC-5 lung fibroblast cell line to test IC50 of 10-hydroxycamptothecin (10-HC) in the absence and presence of Salus™ 301. The ED50 values were determined with human MDA-MB-435S breast carcinoma cell line.

Data set [6] has as its system human MDA-MB-435S breast carcinoma cell line. Kind of data set: Cytotoxicity for breast cancer cells (MDA-MB-435S), XTT. In kind it is cell-based. To be noted: for ability to kill breast cancer cells in the presence of Salus (301): FIGS. 9-13, with vs without Salus agent. The procedure: To further validate the concept in vitro studies using human breast cell carcinoma line and clinically approved blood concentrations of both clofibrate (301) and 10-hydroxycamptothecin were performed. FIG. 9 graphs the results GI 50 below. […] Additionally at clinically approved concentrations of both drugs in the presence of blood concentrations of human serum albumin, without Salus, approximately 33% of the cells were surviving at the end of the test vs. approximately 2%.
as §1
Cytotoxicity of DRUG for Breast Cancer Cells (MDA-MB-435S)
• 1. Count number of cells in flask. The final concentration of cells in each well should be between 5000-40000 cells/well (100,000-800,000 cells/ml). Dilute cells to proper concentration using Leibovitz's L-15 supplemented with 10% FBS and 0.1% insulin. Add 100 μl of cells into the microplate using repeating pipette. Be sure to vortex tube before adding to plate. Allow plate to incubate for 24 hours at 37° C. (Note: wells A1-H1, A1-H11 will contain only medium for evaporation purposes. Well A2 will contain no cells, only medium and will be used in experiment.) • Medium: Leibovitz's L-15 medium. • 2. Albumin: • Make 60 mg/ml in HSA (900 mg HSA+13.3 ml medium). Use Sigma HSA A-8763 • Make 5 ml of 60 mg/ml HSA with 2 mM 301 (2.33 mg 301 for 5.4 ml HSA). • Make 1 ml of 2 mM 301 in medium (0.53 mg in 1.23 ml medium). Dilute 200 μl in 200 μl medium to make 1 mM 301. • Make DRUG stock in DMSO Stock molarity=1000× conc. of highest test sample (ex. if 2 μM is needed, then stock needs to be 2 mM.) This will vary with each drug based on dosage of drug. For Cancer Cells, the highest concentration should be 1-2 times greater than the dosage for the drug. • 3. Make the test concentrations in advance of testing (5-24 hours prior to testing): The test concentrations will be made at double the concentration, 100 μl will be added into the 100 μl of the cells, making the final concentrations the same as those shown on the microplate chart. Change medium in plate (using the L-15 supplemented with 10% FBS and 0.1% insulin prior to loading test concentrations. • 100% cells: 100 μl of medium • medium: 100 μl of medium • 0.5 mM 301: add 100 μl of 1 mM 301 made in medium • 0.5 mM 301 with HSA: add 100 μl of 1 mM 301 with 30 mg/ml HSA • 1 mM 301: add 100 μl of 2 mM 301 made in medium • 1 mM 301 with HSA: add 100 μl of 2 mM 301 with 30 mg/ml HSA • 30 mg/ml HSA: add 100 μl of 60 mg/ml HSA made in medium (2 wells) • Dosage of DRUG: make a 1:500 dilution, using medium as the diluent. Make 2-fold serial dilutions into 300 μl of medium (600 μl total volume). Be sure to make dilutions before adding into wells. • 30×HSA & Dosage DRUG: Follow same serial dilution procedure as above with the DRUG, but the diluent should be medium +60 mg/ml HSA • 30×HSA, 0.5 mM 301 & DRUG: Follow same serial dilution procedure as above with the DRUG, but the diluent should be medium +60 mg/ml HSA with 1 mM 301 • 30×HSA, 1 mM 301 & 2 μM DRUG: Follow same serial dilution procedure as above with the DRUG, but the diluent should be medium +60 mg/ml HSA with 2 mM 301. • Allow these to incubate at 37° C. overnight. After the microplate has been incubating for 24 hours, add the above test concentrations into the appropriate well (see Chart for microplate information). Allow plate to incubate an additional 48 hours. After 48 Hours: • 4. Under sterile hood, reconstitute the XTT vial with 5 ml of medium. • 5. Remove all liquid from wells. Wash with medium, remove, then fill wells with 200 μl of fresh medium. • 6. Add 40 μl of XTT to all wells. • 7. Allow wells to incubate 2 hours. • 8. Read the plate in the microplate reader using a 655 nm reading as a reference wavelength. The read at 450 nm. Subtract the 655 nm reading from the 450 reading. […]
(Tetrazolium assays rely on reduction of a dye to a coloured formazan, in cell work by metabolically active cells.)

In data set [7] the target is T1, human serum albumin. Kind of data set: X-ray structure of human serum albumin complexes (binding site). To be noted: X-ray crystallography.
Data set [8] has as its system human cancer xenografts lines. To be noted: immunodeficient (nude) mice; cited from earlier work.
For data set [9], the target named is T1, human serum albumin. Conditions: carboxylate vs lactone form; cited from earlier work.
The target in data set [10] is T1, human serum albumin. To be noted: Topotecan alone, comparison for Camptothecin with Salus agent; cited from earlier work.

Structures are written as SMILES.

T1 sequence (P02768 25-609): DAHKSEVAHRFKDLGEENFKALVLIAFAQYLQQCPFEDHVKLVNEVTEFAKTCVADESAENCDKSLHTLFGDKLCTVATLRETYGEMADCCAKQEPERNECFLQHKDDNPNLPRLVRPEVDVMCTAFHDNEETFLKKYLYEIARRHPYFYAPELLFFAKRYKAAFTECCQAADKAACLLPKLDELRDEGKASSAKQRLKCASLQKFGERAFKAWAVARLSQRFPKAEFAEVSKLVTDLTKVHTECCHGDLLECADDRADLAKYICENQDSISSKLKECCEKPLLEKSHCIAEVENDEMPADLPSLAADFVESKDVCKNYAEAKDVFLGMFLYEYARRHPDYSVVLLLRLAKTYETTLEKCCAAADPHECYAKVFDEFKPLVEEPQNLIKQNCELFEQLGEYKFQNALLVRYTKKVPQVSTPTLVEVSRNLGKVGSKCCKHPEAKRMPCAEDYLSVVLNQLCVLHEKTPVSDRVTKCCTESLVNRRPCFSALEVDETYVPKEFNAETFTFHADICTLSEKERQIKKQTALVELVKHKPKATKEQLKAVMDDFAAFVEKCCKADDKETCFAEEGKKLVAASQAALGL

With `CC[C@@]1(O)C(=O)OCc2c1cc1n(c2=O)Cc2cc3c(N)cccc3nc2-1` [9-aminocamptothecin], the “lactone levels in murine blood relative to human blood” value in [1] is “approximately 100 fold”. Moreover, the efficacy of therapy result in data set [2] (99 brain cancer patients, intravenous) is given as “grossly ineffective”. Moreover, the “drug in the carboxylate form” value in data set [2] (patients treated intravenously, stated as likelihood) is 99.5%. Further, the “drug remaining in the lactone form at equilibrium” value (from here on “drug remaining in the lactone form”) in data set [3] is 0.5%.
Consider `CC[C@@]1(O)C(=O)OCc2c1cc1n(c2=O)Cc2cc3c([N+](=O)[O-])cccc3nc2-1` [9-nitro-Camptothecin], for which the “increase of active lactone form with the selected Salus agent” value in [4] was “Equally dramatic results”.
By IC50 is commonly meant the concentration that gives 50% inhibition. Consider `CC[C@@]1(O)C(=O)OCc2c1cc1n(c2=O)Cc2cc3cc(O)ccc3nc2-1` [10-HC, 10-hydroxycamptothecin], for which the half-maximal inhibitory concentration (IC50) in data set [5] (with 0.5 mM 301) amounted to 6 µM; in data set [5] (with 1.0 mM 301), 3.3 µM; in data set [5] (without 301), 6.78 µM. In [4], the “increase of active lactone form with the selected Salus agent” value was “Equally dramatic results”. The “ability to kill breast cancer cells in the presence of Salus (301)” value (“ability to kill breast cancer cells” for short) in data set [6] is recorded as “improvement”. The “cells surviving at the end of the test” value in [6] (with Salus (clofibrate, 301), clinically approved concentrations of both drugs, blood concentrations of human serum albumin) is reported as “approximately 2%”; in [6] (without Salus, clinically approved concentration, blood concentrations of human serum albumin), “approximately 33%”. In addition, the “improvement in the GI 50 values” in data set [6] (with clofibrate (301) vs without, blood concentrations of human serum albumin) was “approximately 16 fold”.
On to `CC[C@@]1(O)C(=O)OCc2c1cc1n(c2=O)Cc2cc3ccccc3nc2-1` [Camptothecin], for which the “binding location on human serum albumin” value in [7] is listed as “distinct pocket within IB subdomain”. Moreover, the “number of human cancer xenografts lines in which effective” value in data set [8] was “more than 13”. Moreover, the “enhancement in affinity for HSA of carboxylate form over lactone form” value in [9] is recorded as 150 fold. For the same compound, the “drug remaining in the lactone form” value in data set [3] was 5.3%.
For the compound `COc1cccc2c1C(=O)c1c(O)c3c(c(O)c1C2=O)C[C@@](O)(C(=O)CO)C[C@@H]3O[C@H]1C[C@H](N)[C@H](O)[C@H](C)O1` [Doxorubicin], the “ability to kill breast cancer cells” value in data set [6] was “improvement”.
As to `COc1cccc2c1C(=O)c1c(O)c3c(c(O)c1C2=O)C[C@@](O)(C(=O)CO)C[C@@H]3O[C@H]1C[C@H](N)[C@@H](O)[C@H](C)O1` [Epirubicin], in [6], the “ability to kill breast cancer cells” value is given as “improvement”.
With `CCc1c2c(nc3ccc(O)cc13)-c1cc3c(c(=O)n1C2)COC(=O)[C@]3(O)CC` [SN-38], in data set [3], the “drug remaining in the lactone form” value is 19.5%.
Consider `COc1cc([C@@H]2c3cc4c(cc3[C@@H](O[C@@H]3O[C@@H]5CO[C@@H](c6cccs6)O[C@H]5[C@H](O)[C@H]3O)[C@H]3COC(=O)[C@H]23)OCO4)cc(OC)c1O` [Teniposide], for which, in data set [6], the “ability to kill breast cancer cells” value was “improvement”.
Regarding `CC[C@@]1(O)C(=O)OCc2c1cc1n(c2=O)Cc2cc3c(CN(C)C)c(O)ccc3nc2-1` [Topotecan], the “ability to kill breast cancer cells” value in data set [6] is “improvement”. Also, in data set [10], the “level of active lactone form (comparison value)” value is 12%. Also, the “drug remaining in the lactone form” value in data set [3] is recorded as 11.9%.
